Results: patent US6830765B2, “Green tea extract for treating obesity” (priority 1999, dated 2004)

Key:
[1] = test system: thermogenesis; test: Increase in thermogenesis in man (total expenditure of energy over 24 h, 10 volunteers); assay type: in vivo
Protocol: The increase in thermogenesis in man by an extract of green tea according to the invention was also determined. A similar study was carried out on 10 volunteers receiving at each meal either 500 mg of an extract of green tea (corresponding to 125 mg of catechols and 50 mg of caffeine), or 50 mg of caffeine, or a placebo.

[2] = test system: rat brown adipose tissue; test: Ex vivo model of thermogenesis: oxygen consumption of a sample of rat brown adipose tissue; assay type: cell-based
Protocol: These studies were carried out on an ex vivo pharmacological model of thermogenesis. The principle is to measure the oxygen consumption of a sample of rat brown adipose tissue; the oxygen consumption is proportional to the thermogenesis induced in the adipose tissue by the various test substances.

Row | SMILES | total expenditure of energy over 24 h ([1]; 50 mg of caffeine at each meal, placebo 9538 kJ) [kJ] | effect on thermogenesis, result in words ([1]; caffeine alone at the same dose as provided by the extract) | Increase in oxygen consumption ([2]; Caffeine 100 μM, EGCG 0) | Increase in oxygen consumption ([2]; Caffeine 0, EGCG 100 μM) | Increase in oxygen consumption ([2]; Caffeine 0, EGCG 200 μM)
1 | Cn1c(=O)c2c(ncn2C)n(C)c1=O [caffeine] | 9599 | does not increase thermogenesis | no | – | –
2 | O=C(O[C@@H]1Cc2c(O)cc(O)cc2O[C@@H]1c1cc(O)c(O)c(O)c1)c1cc(O)c(O)c(O)c1 [EGCG, epigallocatechol gallate] | – | – | – | no | +40%
